From patent EP4049726A1, “IMIDAZO[1,2-A]PYRAZINES AS INHIBITORS OF HASPIN AND THERAPEUTIC USES THEREOF” (Fundación del Sector Público Estatal Centro Nacional de …, priority 2021, dated 2022) come the findings set out here.

Test [1] has as its target T1, HASPIN (Homo sapiens, UniProt Q8TF76).
T1 sequence (Q8TF76 1-798): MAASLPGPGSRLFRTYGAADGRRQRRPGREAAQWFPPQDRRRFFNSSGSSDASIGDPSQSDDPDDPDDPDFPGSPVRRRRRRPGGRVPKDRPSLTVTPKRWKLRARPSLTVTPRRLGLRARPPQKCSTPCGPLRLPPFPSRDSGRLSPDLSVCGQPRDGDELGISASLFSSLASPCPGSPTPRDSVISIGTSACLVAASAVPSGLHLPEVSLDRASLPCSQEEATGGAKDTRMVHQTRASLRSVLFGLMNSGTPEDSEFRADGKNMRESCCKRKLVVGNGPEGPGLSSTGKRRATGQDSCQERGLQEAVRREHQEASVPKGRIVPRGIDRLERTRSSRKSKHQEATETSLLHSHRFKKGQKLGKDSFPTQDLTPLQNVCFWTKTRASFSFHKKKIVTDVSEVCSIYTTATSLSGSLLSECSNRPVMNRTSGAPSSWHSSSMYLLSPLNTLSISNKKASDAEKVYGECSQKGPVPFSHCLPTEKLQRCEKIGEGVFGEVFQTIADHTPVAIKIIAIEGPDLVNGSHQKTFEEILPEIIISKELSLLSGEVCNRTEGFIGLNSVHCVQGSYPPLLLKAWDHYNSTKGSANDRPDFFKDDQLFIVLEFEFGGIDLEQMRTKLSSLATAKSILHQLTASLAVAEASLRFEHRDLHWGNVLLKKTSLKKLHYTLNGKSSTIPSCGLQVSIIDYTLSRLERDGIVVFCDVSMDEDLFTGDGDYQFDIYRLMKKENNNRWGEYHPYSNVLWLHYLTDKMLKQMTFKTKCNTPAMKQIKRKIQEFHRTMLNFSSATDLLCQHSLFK
The test is described as follows: HASPIN biochemical assay (ADP-Glo, HASPIN autophosphorylation). The conditions noted are these: ATP 150 µM, 60 min at 30 °C. As for the experimental part:
HASPIN biochemical Assay: The biochemical assay to measure HASPIN activity relies on the ADP-Glo™ assay kit (Promega) that determines the amount of ADP as direct product of the kinase enzyme activity. Assay conditions were as indicated by the kit manufacturers with the following adaptations for the kinase activity step: Kinase assay buffer and assay volume (15 mM HEPES pH 7.5, 20 mM NaCl, 1 mM EGTA, 0.02% TWEEN 20, 10 mM MgCl2, 0.1 mg/mL BGG)/25 µL assay volume). Incubation time and temperature: 60 min at 30 °C. HASPIN final concentration: 0.9 µg/mL. ATP final concentration: 150 µM. HASPIN autophosphorylation was measured. Assays were performed in 384-well plates. The final outcome of the coupled reactions provided by the kit is the release of […] and has been measured with a multilabel HTS counter Victor V / Envision. Values were normalized against the control activity included (100% HASPIN activity, without compound). Values were plotted against the inhibitor concentration and fit to a sigmoid dose-response curve using Activity base by IDBS software.

Test [2] deals with T1, HASPIN. Put plainly: Cellular HASPIN inhibition assay (phosphorylation of H3T3, western blot). The class given is cell-based. The conditions noted are these: MV4:11 cells, 8 hours of treatment, read-out: pH3T3 EC50. As to the method:
Cellular HASPIN Inhibition Assay (phosphorylation of H3T3): Compounds can be screened for their ability to inhibit intracellular HASPIN using a western blot assay to detect phosphorylation of the HASPIN substrate H3T3 in synchronized cells. MV4:11 cells are plated at 400000 cells per well in 6-well plates in RPMI media supplemented with 10% foetal bovine serum, Penicillin/Streptomycin solution diluted 1: 100, and fungizone, and allowed to adhere overnight at 37 °C in 5% CO2. Then, compounds are added to the cell media from a final concentration of 10 µM in 10-fold serial dilutions and the cells are incubated at 37 °C in 5% CO2. After 8 hours of treatment with the compounds, the cells are washed in PBS, lysed adding 100 µl of protein lysis buffer (62.5 mM Tris pH 6.8 al 6.25%, 2% SDS y 10% glycerol) incubation 10 minutes at room temperature and heating at 95 °C 10 min. The protein content of the lysates is determined by DC protein assay. The proteins are resolved by SDS-PAGE and transferred to nitrocellulose membrane. The membranes are incubated overnight at 4 °C with antibodies specific for H3, phosphothreonine-3 H3 they are washed and then incubated with IRDye800 conjugated antimouse and Alexa Fluor 680 goat anti-rabbit IgG secondary antibodies. The bands are visualized and quantified using an Odyssey infrared imaging system. The percentage of H3 phosphorylation is finally plotted against concentration for each compound and EC50s for intracellular HASPIN inhibition are calculated using a software platform for screening data management.

Structures are written as SMILES.

Take `NC(=O)c1cn2cc(-c3ccnc(Cl)c3)nc(NCC3CCNCC3)c2n1` [Compound 3, 6-(2-Chloro-pyridin-4-yl)-8-[(piperidin-4-ylmethyl)-amino]-imidazo[1,2-a]pyrazine-2-carboxylic acid amide]: the midpoint of inhibition on HASPIN [1], the IC50, lay at 45.2 nM. At HASPIN [2], the EC50 is less than 50 nM.

The compound `CNC(=O)c1cn2cc(-c3ccncc3)nc(NCC3CCNCC3)c2n1` [Compound 4, 8-[(Piperidin-4-ylmethyl)-amino]-6-pyridin-4-yl-imidazo[1,2-a]pyrazine-2-carboxylic acid methylamide] yielded an IC50 on HASPIN [1] of 20.4 nM. In addition, the EC50 at HASPIN [2] was less than 50 nM.

Consider `N#CC1(CNc2nc(-c3ccncc3)cn3cc(C(N)=O)nc23)CCNCC1` [Compound 8, 8-[(4-Cyano-piperidin-4-ylmethyl)-amino]-6-pyridin-4-yl-imidazo[1,2-a]pyrazine-2-carboxylic acid amide], for which, at HASPIN [1], the 50% inhibitory concentration (IC50) is 19.7 nM. For the same compound, the EC50 on HASPIN [2] is less than 50 nM.

Compound `NC(=O)c1cn2cc(-c3ccncc3F)nc(NCC3CCNCC3)c2n1` [Compound 27, 6-(3-Fluoro-pyridin-4-yl)-8-[(piperidin-4-ylmethyl)-amino]-imidazo[1,2-a]pyrazine-2-carboxylic acid amide] had an IC50 at HASPIN [1] of 9.42 nM. For the same compound, the half-maximal effective concentration (EC50) at HASPIN [2] was less than 50 nM.

At HASPIN [1], `CNC(=O)c1cn2cc(-c3ccncc3F)nc(NCC3(C#N)CCNCC3)c2n1` [Compound 32, 8-[(4-Cyano-piperidin-4-ylmethyl)-amino]-6-(3-fluoro-pyridin-4-yl)-imidazo[1,2-a]pyrazine-2-carboxylic acid methylamide] registered an IC50 of 7.63 nM. On HASPIN [2], the EC50 is less than 50 nM.

Turning to `NC(=O)c1cn2cc(-c3ccncc3F)nc(NCC3(F)CCNCC3)c2n1` [Compound 33, 8-[(4-Fluoro-piperidin-4-ylmethyl)-amino]-6-(3-fluoro-pyridin-4-yl)-imidazo[1,2-a]pyrazine-2-carboxylic acid amide], the IC50 at HASPIN [1] was determined as 10.5 nM. Besides, the EC50 at HASPIN [2] is less than 50 nM.

The compound `Cc1cc(-c2cn3cc(C(N)=O)nc3c(NCC3CCNCC3)n2)ccn1` [Compound 36, 6-(2-Methyl-pyridin-4-yl)-8-[(piperidin-4-ylmethyl)-amino]-imidazo[1,2-a]pyrazine-2-carboxylic acid amide] had a 50% inhibitory concentration (IC50) on HASPIN [1] of 24.6 nM. The EC50 on HASPIN [2] is less than 50 nM.
